According to patent US9815863B2, “Hydrogen bond forming fluoro ketolides for treating diseases” (priority 2010, dated 2017):
Converted amounts (≈) assume the structure as drawn.

Columns and labels:
[1] = system: Streptococcus pneumoniae Pen^R, Tel^1/^R, Mac^R; experiment: MIC against streptococci clinical isolates (Table 3); type: cell-based; conditions: Streptococcus pneumoniae, S. pneumoniae Pen^R, 12 strains, constitutive ermB
[2] = system: 2058-dimethylated ribosomes isolated from the S. aureus N315 strain; experiment: RNA footprinting of A2058-dimethylated (Erm-modified) ribosomes from S. aureus N315; type: binding; conditions: S. aureus N315 ribosomes dimethylated at A2058, drugs at 100 μM
Experimental: Ribosome chemical probing. rRNA probing was done following standard protocols (Merryman, C., and H. F. Noller. 1998. Footprinting and modification-interference analysis of binding sites on RNA, p. 237-253. In C. W. J. Smith (ed.), RNA:Protein Interactions, A Practical Approach. Oxford University Press, Oxford), with minor modifications. Briefly, 200 nM ribosomes were incubated with 100 μM antibiotic in 50 μL of buffer B (80 mM HEPES-KOH [pH 7.8], 20 mM MgCl2, 100 mM NH4Cl, 1.5 mM dithiothreitol) for 10 min at 37° C., followed by 10 min at 20° C. Modifying reagents (dimethyl sulfate [DMS], kethoxal, or 1-cyclohexyl-3-(2-morpholinoethyl)carbodiimide metho p-toluene sulfonate [CMCT]) were added and the modification reaction was carried out for 10 min at 37° C. After quenching the reaction and ethanol precipitation, rRNA was extracted and the distribution of modified nucleotides was assessed by primer extension.
Interaction of CEM-101 with S. aureus ribosomes dimethylated at A2058 by Erm-methyltransferase. Erm-methyltransferase modifies A2058 in 23S rRNA by consecutively adding two methyl groups to the exocyclic amino group of the adenine base. Such modification completely blocks binding of erythromycin and similar macrolides, whereas its effect on binding of ketolides is less clear (Douthwaite, S., L. H. Hansen, and P. Mauvais. 2000. Macrolide-ketolide inhibition of MLS-resistant ribosomes is improved by alternative drug interaction with domain R of 23S rRNA. Mol. Microbiol. 36:183-193; Liu, M., and S. Douthwaite. 2002. Activity of the ketolide telithromycin is refractory to Erm monomethylation of bacterial rRNA. Antimicrob. Agents Chemother. 46:1629-1633). Therefore, interaction of CEM-101 with the ribosomes isolated from a clinical S. aureus strain N315, which carries five chromosomal copies of constitutively expressed ermA gene present in the Tn554 transposon (Kuroda, M., T. Ohta, I. Uchiyama, T. Baba, H. Yuzawa, I. Kobayashi, L. Cui, A. Oguchi, K. Aoki, Y. Nagai, J. Lian, T. Ito, M. Kanamori, H. Matsumaru, A. Maruyama, H. Murakami, A. Hosoyama, Y. Mizutani-Ui, N. K. Takahashi, T. Sawano, R. Inoue, C. Kaito, K. Sekimizu, H. Hirakawa, S. Kuhara, S. Goto, J. Yabuzaki, M. Kanehisa, A. Yamashita, K. Oshima, K. Furuya, C. Yoshino, T. Shiba, M. Hattori, N. Ogasawara, H. Hayashi, and K. Hiramatsu. 2001. Whole genome sequencing of meticillin-resistant Staphylococcus aureacs. Lancet 357:1225-1240) was investigated.
Footprinting analysis was used to test interactions of ketolides (CEM-101 and telithromycin) and cladinose-containing macrolides (CEM-103 and erythromycin) with the 2058-dimethylated ribosomes isolated from the S. aureus N315 strain. Ribosomes were incubated with the drugs (present at 100 μM concentration) and probed by DMS modification. Because dimethylated A2058 blocks progression of reverse transcriptase along the RNA template, a strong reverse transcriptase stop is observed at A2058 on the primer extension gel (Vester, B., and S. Douthwaite. 1994. Domain V of 23S rRNA contains all the structural elements necessary for recognition by the ErmE methyltransferase. J. Bacteriol. 176:6999-7004; Zhong, P., Z. Cao, R. Hammond, Y. Chen, J. Beyer, V. D. Shortridge, L. Y. Phan, S. Pratt, J. Capobianco, K. A. Reich, R. K. Flamm, Y. S. Or, and L. Katz. 1999. Induction of ribosome methylation in MLS-resistant Streptococcus pneumoniae by macrolides and ketolides. Microb. Drug Resist. 5:183-188). Therefore, it is impossible to use footprinting to evaluate interactions of macrolides with this position in the S. aureus N315 ribosomes. […]

**Q.** For `CC[C@H]1OC(=O)[C@@](C)(F)C(=O)[C@H](C)[C@@H](O[C@@H]2O[C@H](C)C[C@H](N(C)C)[C@H]2O)[C@](C)(OC)C[C@@H](C)C(=O)[C@H](C)[C@H]2N(CCCCn3cc(-c4cccc(N)c4)nn3)C(=O)O[C@]12C` [CEM-101], which MIC50 ([1]; read-out: MIC50) is on record?
**A.** 0.5 µg/mL (≈ 0.592 µM)

**Q.** What about the MIC90 ([1]; read-out: MIC90) of the same compound?
**A.** 0.5 µg/mL (≈ 0.592 µM)

**Q.** What about the “Protection of A2059 from DMS modification (binding to Erm-modified ribosome)” value [2] of the same compound?
**A.** protection of A2059 from DMS modification

**Q.** What about the “Protection of G2505 from kethoxal modification” value [2] of the same compound?
**A.** partially protected

**Q.** And the “Protection of U2609 from modification with CMCT” value [2]?
**A.** fully protected
